These results are taken from patent US11014929B2, “Pyrazolopyrimidine compounds and uses thereof” (Incyte Corporation, priority 2016, dated 2021).

pKi: −log10 of the molar value. Bounds are passed on as bounds.

The target of the experiment is HPK1 (Homo sapiens (Human), UniProt Q92918). The experiment can be described thus: HPK1 Kinase Binding Assay. The following applies: LanthaScreen tracer 222 binding, active HPK1, one hour incubation at 25° C. A digest of the protocol: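 This is a LanthaScreen tracer-binding format: a tracer 222/Eu-anti-GST antibody mix (18 nM and 4 nM solution) is added to active HPK1 (4 nM solution) with 3-fold, 11-point compound dilutions. Incubation is 1 h at 25 °C in HEPES pH 7.5 buffer before reading, and Ki is determined.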
HPK1, sequence (Q92918 1-346): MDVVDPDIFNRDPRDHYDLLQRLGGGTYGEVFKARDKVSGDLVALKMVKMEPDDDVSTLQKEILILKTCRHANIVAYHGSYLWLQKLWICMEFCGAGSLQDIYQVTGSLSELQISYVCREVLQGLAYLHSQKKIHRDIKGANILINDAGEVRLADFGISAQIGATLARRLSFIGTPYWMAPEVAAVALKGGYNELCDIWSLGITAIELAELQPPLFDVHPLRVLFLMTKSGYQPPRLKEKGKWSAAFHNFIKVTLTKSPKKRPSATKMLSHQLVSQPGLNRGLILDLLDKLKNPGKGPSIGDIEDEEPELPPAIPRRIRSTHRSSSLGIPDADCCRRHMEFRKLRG
(TR-FRET usually uses a lanthanide donor and a delayed reading to cut background.)
The term pKi denotes the Ki on a negative log10 scale, so that one unit is a factor of ten. As to `CNc1ncc(-c2n[nH]c3cnc(-c4c(F)cc5c(c4F)CNCC5)nc23)cn1` [Example 94, 5-(5-(6,8-Difluoro-1,2,3,4-tetrahydroisoquinolin-7-yl)-1H-pyrazolo[4,3-d]pyrimidin-3-yl)-N-methylpyrimidin-2-amine], the pKi was no less than 7.00.
Next, `CCN1CCN(c2ccc(-c3n[nH]c4cnc(-c5c(F)cc(CNC)cc5C(F)(F)F)nc34)cc2)CC1` [Example 124, 1-(4-(3-(4-(4-Ethylpiperazin-1-yl)phenyl)-1H-pyrazolo[4,3-d]pyrimidin-5-yl)-3-fluoro-5-(trifluoromethyl)phenyl)-N-methylmethanamine]: no less than 7.00.
Then `CNCc1cc(C)c(-c2ncc3[nH]nc(-c4cnn(-c5ccccc5C#N)c4)c3n2)c(F)c1` [Example 79, 2-(4-(5-(2-Fluoro-6-methyl-4-((methylamino)methyl)phenyl)-1H-pyrazolo[4,3-d]pyrimidin-3-yl)-1H-pyrazol-1-yl)benzonitrile], with no less than 7.00; and `COc1cccc(F)c1-c1ncc2[nH]nc(-c3cccc(N4CCCC4)c3)c2n1` [Example 28, 5-(2-fluoro-6-methoxyphenyl)-3-(3-(pyrrolidin-1-yl)phenyl)-1H-pyrazolo[4,3-d]pyrimidine], with 6.30 to 7.00.
Then `COc1cccc(F)c1-c1ncc2[nH]nc(-c3ccccc3)c2n1` [Example 12, 5-(2-Fluoro-6-methoxyphenyl)-3-phenyl-1H-pyrazolo[4,3-d]pyrimidine], with no less than 7.00.
In turn, `CNCc1cc(F)c(-c2ncc3[nH]nc(-c4cccc(C#N)c4)c3n2)c(F)c1` [Example 64, 3-(5-(2,6-Difluoro-4-((methylamino)methyl)phenyl)-1H-pyrazolo[4,3-d]pyrimidin-3-yl)benzonitrile] gave a pKi of no less than 7.00.
Compound `CN1CCN(c2ccc(-c3n[nH]c4cnc(-c5cncc(C(=O)N6CCOCC6)c5)nc34)cc2)CC1` [Example 8, (5-(3-(4-(4-Methylpiperazin-1-yl)phenyl)-1H-pyrazolo[4,3-d]pyrimidin-5-yl)pyridin-3-yl)(morpholino)methanone] gave a pKi of no less than 7.00.
Then `Cn1cc(-c2n[nH]c3cnc(-c4c(F)cc(NC(=O)CN5CCCC5)cc4F)nc23)cn1` [Example 82, N-(3,5-Difluoro-4-(3-(1-methyl-1H-pyrazol-4-yl)-1H-pyrazolo[4,3-d]pyrimidin-5-yl)phenyl)-2-(pyrrolidin-1-yl)acetamide], with no less than 7.00; and `CNCc1cc(F)c(-c2ncc3[nH]nc(-c4ccc(C(=O)NC)c(F)c4)c3n2)c(F)c1` [Example 62, 4-(5-(2,6-Difluoro-4-((methylamino)methyl)phenyl)-1H-pyrazolo[4,3-d]pyrimidin-3-yl)-2-fluoro-N-methylbenzamide], with no less than 7.00.
The compound `COc1cccc(F)c1-c1ncc2[nH]nc(-c3ccc(C4(N5CCOCC5)CC4)cc3)c2n1` [Example 33, 4-(1-(4-(5-(2-Fluoro-6-methoxyphenyl)-1H-pyrazolo[4,3-d]pyrimidin-3-yl)phenyl)cyclopropyl)morpholine] had a pKi of 6.30 to 7.00.
